Assay: Hygroscopicity: moisture pick up of antiperspirant active in controlled relative humidity
Assay type: physicochemical
Conditions: at 86% RH, 5 days, 20° C.
Protocol: One way to evaluate the hygroscopic nature of an antiperspirant active is to determine the equilibrium moisture pick up of the active after 5 days in a controlled relative humidity environment. Specific humidity chambers can be created placing saturated salt solutions in desiccators at a specific temperature. Different salts are used to create different humidities, for example potassium chloride can be used to make an 86% relative humidity (RH) environment at 20° C. In general there is an increase in moisture pick up as humidity is increased for the antiperspirant actives shown, however there are clear differences in slope and amount of moisture pick up at high humidity. Materials with higher slope and larger increases at high humidity (i.e. 86% RH) are considered to be more hygroscopic. The aluminum zirconium trichlorohydrate active (metal to chloride ratio=1.6) from Inventive Example 1 is the least hygroscopic (28% moisture pick up at 86% RH) with the aluminum zirconium tetrachlorohydrate active (metal to chloride ratio=1.2) being substantially more hygroscopic (40% moisture pick up at 86% RH). […] This may explain the substantial difference observed in the amount of sweat measured between Inventive Examples 1 and 2. […]

Substance | moisture pick up (hygroscopicity)
aluminum zirconium tetrachlorohydrate | 40%
aluminum zirconium trichlorohydrate | 28%
